Test results taken from PubChem BioAssay (NCI).
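Dose response: 5 concentrations. Exposure: 48 h. Format: 96-well plates. Endpoint: linear interpolation; highest concentration if not reached. GI50 marks 50% less growth. TGI: total growth inhibition.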

What was measured:
Experiment in all cases: growth of human tumour cells (NCI), 48 h
RPMI-8226 leukemia = test system: RPMI-8226 leukemia
HOP-92 NSCLC = test system: HOP-92 NSCLC
PC-3 prostate = test system: PC-3 prostate
SNB-75 CNS = test system: SNB-75 CNS
OVCAR-8 ovarian = test system: OVCAR-8 ovarian
OVCAR-3 ovarian = test system: OVCAR-3 ovarian
M14 melanoma = test system: M14 melanoma
OVCAR-4 ovarian = test system: OVCAR-4 ovarian
A549 NSCLC = test system: A549 NSCLC
SN12C renal = test system: SN12C renal
SK-OV-3 ovarian = test system: SK-OV-3 ovarian
HOP-62 NSCLC = test system: HOP-62 NSCLC
OVCAR-5 ovarian = test system: OVCAR-5 ovarian
NCI/ADR-RES ovarian = test system: NCI/ADR-RES ovarian
U251 CNS = test system: U251 CNS
HCT-15 colon = test system: HCT-15 colon
ACHN renal = test system: ACHN renal
RXF 393 renal = test system: RXF 393 renal
SF-539 CNS = test system: SF-539 CNS
K-562 leukemia = test system: K-562 leukemia
IGROV1 ovarian = test system: IGROV1 ovarian
SF-268 CNS = test system: SF-268 CNS
LOX IMVI melanoma = test system: LOX IMVI melanoma
MDA-MB-435 = test system: MDA-MB-435
MCF7 breast = test system: MCF7 breast
NCI-H226 lung = test system: NCI-H226 lung
CCRF-CEM leukemia = test system: CCRF-CEM leukemia
MALME-3M melanoma = test system: MALME-3M melanoma
SNB-19 CNS = test system: SNB-19 CNS
NCI-H522 lung = test system: NCI-H522 lung
DU-145 prostate = test system: DU-145 prostate
NCI-H460 lung = test system: NCI-H460 lung
SR leukemia = test system: SR leukemia
MDA-MB-231 breast = test system: MDA-MB-231 breast
KM12 colon = test system: KM12 colon
786-0 renal = test system: 786-0 renal
CAKI-1 renal = test system: CAKI-1 renal
HL-60(TB) leukemia = test system: HL-60(TB) leukemia
COLO 205 colon = test system: COLO 205 colon
HCC-2998 colon = test system: HCC-2998 colon
SK-MEL-5 melanoma = test system: SK-MEL-5 melanoma
NCI-H23 lung = test system: NCI-H23 lung
UACC-62 melanoma = test system: UACC-62 melanoma
HCT-116 colon = test system: HCT-116 colon
TK-10 renal = test system: TK-10 renal
SK-MEL-2 melanoma = test system: SK-MEL-2 melanoma
SF-295 CNS = test system: SF-295 CNS
MDA-MB-468 breast = test system: MDA-MB-468 breast
HT29 colon = test system: HT29 colon
A498 renal = test system: A498 renal
SW-620 colon = test system: SW-620 colon
SK-MEL-28 melanoma = test system: SK-MEL-28 melanoma
BT-549 breast = test system: BT-549 breast
EKVX NSCLC = test system: EKVX NSCLC
T-47D breast = test system: T-47D breast
UACC-257 melanoma = test system: UACC-257 melanoma
HS 578T breast = test system: HS 578T breast
UO-31 renal = test system: UO-31 renal
MOLT-4 leukemia = test system: MOLT-4 leukemia

COc1ccc(/C=C/C(=O)c2ccc(OC)c(S(N)(=O)=O)c2)c(C(F)(F)F)c1
GI50 (RPMI-8226 leukemia): 3.48 µM
TGI (RPMI-8226 leukemia): > 100 µM
GI50 (HOP-92 NSCLC): 11 µM
TGI (HOP-92 NSCLC): 34.8 µM
GI50 (PC-3 prostate): 4.57 µM
TGI (PC-3 prostate): 18.5 µM
GI50 (SNB-75 CNS): 3.22 µM
TGI (SNB-75 CNS): 15.4 µM
GI50 (OVCAR-8 ovarian): 2340 nM
TGI (OVCAR-8 ovarian): 6.27 µM
GI50 (OVCAR-3 ovarian): 2890 nM
TGI (OVCAR-3 ovarian): 10.4 µM
GI50 (M14 melanoma): 9.19 µM
TGI (M14 melanoma): 25.2 µM
GI50 (OVCAR-4 ovarian): 3.47 µM
TGI (OVCAR-4 ovarian): 15.7 µM
GI50 (A549 NSCLC): 2990 nM
TGI (A549 NSCLC): 11.4 µM
GI50 (SN12C renal): 2960 nM
TGI (SN12C renal): 11.4 µM
GI50 (SK-OV-3 ovarian): 15.5 µM
TGI (SK-OV-3 ovarian): 43 µM
GI50 (HOP-62 NSCLC): 3.23 µM
TGI (HOP-62 NSCLC): 14.4 µM
GI50 (OVCAR-5 ovarian): 2210 nM
TGI (OVCAR-5 ovarian): 6.33 µM
GI50 (NCI/ADR-RES ovarian): 2610 nM
TGI (NCI/ADR-RES ovarian): 10.6 µM
GI50 (U251 CNS): 2580 nM
TGI (U251 CNS): 7.32 µM
GI50 (HCT-15 colon): 2320 nM
TGI (HCT-15 colon): 6.72 µM
GI50 (ACHN renal): 4.28 µM
TGI (ACHN renal): 15.7 µM
GI50 (RXF 393 renal): 2790 nM
TGI (RXF 393 renal): 11.4 µM
GI50 (SF-539 CNS): 1800 nM
TGI (SF-539 CNS): 3.4 µM
GI50 (K-562 leukemia): 3.24 µM
TGI (K-562 leukemia): 12.6 µM
GI50 (IGROV1 ovarian): 3.98 µM
TGI (IGROV1 ovarian): 15.8 µM
GI50 (SF-268 CNS): 3.35 µM
TGI (SF-268 CNS): 16.5 µM
GI50 (LOX IMVI melanoma): 2310 nM
TGI (LOX IMVI melanoma): 6.97 µM
GI50 (MDA-MB-435): 4.23 µM
TGI (MDA-MB-435): 19.6 µM
GI50 (MCF7 breast): 2580 nM
TGI (MCF7 breast): 10.6 µM
GI50 (NCI-H226 lung): 2110 nM
TGI (NCI-H226 lung): 5.44 µM
GI50 (CCRF-CEM leukemia): 2950 nM
TGI (CCRF-CEM leukemia): 9.7 µM
GI50 (MALME-3M melanoma): 5.96 µM
TGI (MALME-3M melanoma): 20.6 µM
GI50 (SNB-19 CNS): 3.95 µM
TGI (SNB-19 CNS): 16.1 µM
GI50 (NCI-H522 lung): 2510 nM
TGI (NCI-H522 lung): 14.3 µM
GI50 (DU-145 prostate): 3.39 µM
TGI (DU-145 prostate): 12.8 µM
GI50 (NCI-H460 lung): 2030 nM
TGI (NCI-H460 lung): 6.2 µM
GI50 (SR leukemia): 3000 nM
TGI (SR leukemia): 19.5 µM
GI50 (MDA-MB-231 breast): 2370 nM
TGI (MDA-MB-231 breast): 6.14 µM
GI50 (KM12 colon): 3.89 µM
TGI (KM12 colon): 19 µM
GI50 (786-0 renal): 3.16 µM
TGI (786-0 renal): 14.4 µM
GI50 (CAKI-1 renal): 3.82 µM
TGI (CAKI-1 renal): 14.6 µM
GI50 (HL-60(TB) leukemia): 4.7 µM
TGI (HL-60(TB) leukemia): 30.7 µM
GI50 (COLO 205 colon): 4.76 µM
TGI (COLO 205 colon): 28.9 µM
GI50 (HCC-2998 colon): 10.7 µM
TGI (HCC-2998 colon): 24.2 µM
GI50 (SK-MEL-5 melanoma): 3.42 µM
TGI (SK-MEL-5 melanoma): 15.1 µM
GI50 (NCI-H23 lung): 3.4 µM
TGI (NCI-H23 lung): 14.2 µM
GI50 (UACC-62 melanoma): 4.7 µM
TGI (UACC-62 melanoma): 18.1 µM
GI50 (HCT-116 colon): 2410 nM
TGI (HCT-116 colon): 6.14 µM
GI50 (TK-10 renal): 13.4 µM
TGI (TK-10 renal): 29.9 µM
GI50 (SK-MEL-2 melanoma): 3.78 µM
TGI (SK-MEL-2 melanoma): 15.9 µM
GI50 (SF-295 CNS): 4.37 µM
TGI (SF-295 CNS): 22.5 µM
GI50 (MDA-MB-468 breast): 2370 nM
TGI (MDA-MB-468 breast): 12 µM
GI50 (HT29 colon): 3.2 µM
TGI (HT29 colon): 11.4 µM
GI50 (A498 renal): 18.1 µM
TGI (A498 renal): 37.8 µM
GI50 (SW-620 colon): 2070 nM
TGI (SW-620 colon): 6.19 µM
GI50 (SK-MEL-28 melanoma): 11.6 µM
TGI (SK-MEL-28 melanoma): 23.8 µM
GI50 (BT-549 breast): 5.04 µM
TGI (BT-549 breast): 16.4 µM
GI50 (EKVX NSCLC): 3.55 µM
TGI (EKVX NSCLC): 16.1 µM
GI50 (T-47D breast): 4.06 µM
TGI (T-47D breast): 24.7 µM
GI50 (UACC-257 melanoma): 9.28 µM
TGI (UACC-257 melanoma): 21.9 µM
GI50 (HS 578T breast): 2840 nM
TGI (HS 578T breast): 19.1 µM
GI50 (UO-31 renal): 5.14 µM
TGI (UO-31 renal): 18.4 µM
GI50 (MOLT-4 leukemia): 2810 nM
TGI (MOLT-4 leukemia): 13.7 µM
